Patent US20240092779A1, “USP1 INHIBITORS AND USES THEREOF” (Zentaur Therapeutics USA Inc., priority 2022, published 2024)

Target: T1, recombinant USP1/UAF1 enzyme complex (Homo sapiens, UniProt O94782)
T1 construct: purchased Biortus
Assay: Enzyme assay: deubiquitinase fluorometric assay with ubiquitin-Rhodamine substrate
Assay type: biochemical
Conditions: USP1/UAF1, Ub-Rho110 substrate, 2 hours preincubation, 1 hour reaction
Procedure, shortened: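 Recombinant human USP1/UAF1 (0.004 nM) preincubated with compounds (10 μM to 0.5 nM, 10 steps) for 2 h at room temperature in pH 7.5 HEPES buffer with EDTA, DTT, BSA.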

T1 sequence (O94782 whole entry): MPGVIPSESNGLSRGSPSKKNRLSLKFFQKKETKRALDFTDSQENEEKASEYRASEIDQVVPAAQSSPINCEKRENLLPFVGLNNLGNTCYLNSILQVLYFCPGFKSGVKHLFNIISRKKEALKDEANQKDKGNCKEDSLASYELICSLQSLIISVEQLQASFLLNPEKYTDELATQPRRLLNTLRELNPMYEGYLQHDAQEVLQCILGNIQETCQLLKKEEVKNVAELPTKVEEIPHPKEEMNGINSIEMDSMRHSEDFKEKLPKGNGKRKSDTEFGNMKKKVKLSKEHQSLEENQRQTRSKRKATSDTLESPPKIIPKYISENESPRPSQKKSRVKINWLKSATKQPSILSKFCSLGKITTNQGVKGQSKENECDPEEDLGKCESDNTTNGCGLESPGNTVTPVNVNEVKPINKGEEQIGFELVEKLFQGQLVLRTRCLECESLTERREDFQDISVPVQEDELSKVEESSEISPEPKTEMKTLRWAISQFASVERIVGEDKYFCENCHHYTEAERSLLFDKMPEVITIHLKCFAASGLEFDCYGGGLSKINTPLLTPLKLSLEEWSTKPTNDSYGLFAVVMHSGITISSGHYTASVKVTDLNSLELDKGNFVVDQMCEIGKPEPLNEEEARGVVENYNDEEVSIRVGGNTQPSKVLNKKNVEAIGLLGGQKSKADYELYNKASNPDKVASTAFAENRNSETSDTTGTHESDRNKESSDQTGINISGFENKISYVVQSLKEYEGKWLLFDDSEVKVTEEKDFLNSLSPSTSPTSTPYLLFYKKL
T1 sequence (Q8TAF3 whole entry partner): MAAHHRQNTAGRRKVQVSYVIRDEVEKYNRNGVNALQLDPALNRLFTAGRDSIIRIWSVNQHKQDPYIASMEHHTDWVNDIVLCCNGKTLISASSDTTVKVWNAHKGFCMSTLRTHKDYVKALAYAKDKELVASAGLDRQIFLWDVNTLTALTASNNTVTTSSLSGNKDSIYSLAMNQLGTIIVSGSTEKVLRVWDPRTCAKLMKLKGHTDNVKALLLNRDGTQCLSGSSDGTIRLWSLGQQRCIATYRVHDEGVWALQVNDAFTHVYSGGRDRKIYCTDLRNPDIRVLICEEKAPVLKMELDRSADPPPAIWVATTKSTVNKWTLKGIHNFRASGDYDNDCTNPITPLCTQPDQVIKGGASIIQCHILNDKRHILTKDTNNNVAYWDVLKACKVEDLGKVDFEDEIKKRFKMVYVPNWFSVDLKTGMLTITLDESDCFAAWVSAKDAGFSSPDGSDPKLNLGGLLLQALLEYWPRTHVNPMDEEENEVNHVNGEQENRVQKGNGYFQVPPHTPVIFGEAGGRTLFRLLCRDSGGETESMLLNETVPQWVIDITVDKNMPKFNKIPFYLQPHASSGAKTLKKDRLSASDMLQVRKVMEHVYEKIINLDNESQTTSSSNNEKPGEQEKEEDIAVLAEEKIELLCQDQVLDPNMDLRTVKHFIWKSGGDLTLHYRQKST

| SMILES | IC50 [nM] |
| --- | --- |
| COc1ncnc(C2CC2)c1-c1ncc2ccc(=O)n(Cc3ccc(-c4nc(C(F)(F)F)cn4C(C)C)cc3)c2c1F [Compound I-27, 7-(4-cyclopropyl-6-methoxypyrimidin-5-yl)-8-fluoro-1-({4-[1-isopropyl-4-(trifluoromethyl)imidazol-2-yl]phenyl}methyl)-1,6-naphthyridin-2-one] | 10 to 100 |
| COc1ncnc(C2CC2)c1-c1ncc2ccc(=O)n(Cc3ccc(-c4cccc(C(F)(F)F)n4)cc3)c2n1 [Compound I-36, 2-(4-cyclopropyl-6-methoxypyrimidin-5-yl)-8-({4-[6-(trifluoromethyl)pyridin-2-yl]phenyl}methyl)pyrido[2,3-d]pyrimidin-7-one] | 10 to 100 |
